Tests used:
Format in all cases: cell-based
[1] = system: Normal human dermal fibroblasts; experiment: Stimulation of collagen type I formation in fibroblasts (sandwich ELISA of culture media); details: for ELISA Collagen Type I / ELISA Collagen Type I (% Increase): 3 days; for ELISA Collagen Type I: low glucose media with 2% serum, control 48; for ELISA Collagen Type I (% Increase): vs 0 ug/ml control
Protocol: The effect of peptide manganese complexes on collagen formation was determined by determining the amount of collagen type I produced by human fibroblasts in cell culture. Normal human dermal fibroblasts were seeded into a 96-well cell culture plate and grown to confluence in high glucose media supplemented with 10% fetal calf serum for 3 days. The fibroblasts were then placed in low glucose media with 2% serum and various amounts of a representative peptide manganese complex. After 3 days, the culture media was collected and analyzed for collagen type I content by a sandwich ELISA assay using purified antibody to collagen type I.

[2] = system: Normal human dermal fibroblasts; experiment: Proliferation of dermal fibroblasts (sulforhodamin B stain, cell number); details: for Sulforhodamin B Stain - Cell Number / Sulforhodamin B Stain - Cell Number (% Increase): 3 days; for Sulforhodamin B Stain - Cell Number: control 313; for Sulforhodamin B Stain - Cell Number (% Increase): vs 0 ug/ml control
Protocol: (§1) The effect of peptide manganese complexes on the growth and viability of fibroblasts was determined. Normal human dermal fibroblasts were seeded into a 96-well cell culture plate and grown to confluence in high glucose media supplemented with 10% fetal calf serum for 3 days. The fibroblasts were then placed in low glucose media with 2% serum and various amounts of a representative peptide manganese complex. After 3 days, the cells were incubated with neutral red to assess their viability and stained with sulforhodamin B and counted to determine the number of cells.

[3] = system: Normal human dermal fibroblasts; experiment: Viability of dermal fibroblasts (neutral red stain); details: for Neutral Red Stain - Cell Viability: 3 days, control 212
Protocol: as §1

glycyl-L-histidyl-L-lysine:manganese(II)
ELISA Collagen Type I ([1]; 10 ug/ml complex): 61.5
ELISA Collagen Type I (% Increase) ([1]; 10 ug/ml complex): +28%
ELISA Collagen Type I ([1]; 100 ug/ml complex): 102.5
ELISA Collagen Type I (% Increase) ([1]; 100 ug/ml complex): +129%
Effect on formation of collagen type I (in words) ([1]; summary of Table 4): stimulated the formation of collagen type I
Sulforhodamin B Stain - Cell Number ([2]; 10 ug/ml complex): 383
Sulforhodamin B Stain - Cell Number (% Increase) ([2]; 10 ug/ml complex): +22%
Sulforhodamin B Stain - Cell Number ([2]; 100 ug/ml complex): 535
Sulforhodamin B Stain - Cell Number (% Increase) ([2]; 100 ug/ml complex): +71%
Effect on proliferation of normal human dermal fibroblasts (in words) ([2]; summary of Table 5): stimulated the proliferation
Neutral Red Stain - Cell Viability ([3]; 10 ug/ml complex): 231
Neutral Red Stain - Cell Viability ([3]; 100 ug/ml complex): 253
Effect on viability of normal human dermal fibroblasts (in words) ([3]; summary of Table 6): increased their viability
